Results reported in US7091033B2, “Array of toxicologically relevant canine genes and uses thereof” (Phase-1 Molecular Toxicology, Inc., priority 2000, dated 2006).

Tests used:
[1] = test system: IL-8 gene expression; test: Measurement of IL-8 dose response: IL-8 gene expression (fold induction) in MDCK cells dosed with cadmium chloride, cDNA probes on canine array; type: cell-based; conditions: MDCK cells dosed for 24 hrs at 0.1 μM, 1 μM, and 10 μM; FIG. 3
Source text: Dosage response is an important concept in toxicology. Depending on the dosage of a toxin or agent which may be toxic, the gene expression profile of a particular gene may vary. One way that this can be envisioned is by observing the changes in fold induction of a particular gene when analyzed using the arrays of this invention. The dosages determined in dose response curves may be useful in determining “threshold” levels of toxicity, for example for FDA approval. Example 15 and FIG. 3 illustrate this embodiment. Methods of analyzing gene expression and how to correlate gene expression data are provided herein.
Fluorescence-labeled first strand cDNA probe was made from total or mRNA by first isolating RNA from control and treated cells, disclosed supra. […]
The volume of each sample that would contain 20 μg of total RNA (or 2 μg of mRNA) was calculated. The amount of DEPC water needed to bring the total volume of each RNA sample to 14 μl was also calculated. […]
Then the appropriate volume of each RNA sample was added to the labeled PCR tube. […] The tubes were kept on ice until all samples are ready for the next step. It is preferable for the tubes to kept on ice until the next step is ready to proceed. The samples were incubated in a PCR machine for 10 minutes at 70° C. followed by 4° C. incubation period until the sample tubes were ready to be retrieved. […]

[2] = test system: canine genes in a canine array (Canine kidney); test: Canine array fold induction of canine genes in kidney of dogs dosed with an agent (Table 11); type: in vivo; conditions: Canine kidney, 0.8 mg/kg, 2 days
Source text: (§1) Table 11 depicts the fold induction for canine genes in a canine array.

[3] = test system: canine genes of the array; test: Canine array fold induction of canine genes in kidney of canines dosed with test agents (Table 11); type: in vivo; conditions: dog, 2 mg/kg, 10189, Canine kidney, 2 mg/kg, 2 days, gene = c0 of the row
Source text: as §1

[4] = test system: canine genes of the array; test: Canine array fold induction of canine genes in liver of canines dosed with test agents (Table 11); type: in vivo; conditions: dog, 2 mg/kg, 10319, Canine liver, 2 mg/kg, 3 day, gene = c0 of the row
Source text: as §1

[5] = test system: canine genes differentially expressed in organs (liver, spleen, kidney, testes, heart, thymus); test: Transcriptome profiling / differential display of tissues from canines exposed to an agent versus vehicle (reverse transcription, PCR, reamplification of bands, sequencing); type: in vivo
[6] = Band # CTP3B, Homo Sapien N-myc dow BC003175, larger band of doublet
[7] = Band # CTP27C, Homo sapiens CTCL turn AF177227

Question: [Cl][Cd][Cl] [cadmium chloride] was tested. Which “IL-8 gene expression, fold induction” value [1] did it give?
Answer: fold induction varies with the dosage

Question: What does the source list for C[C@@H]1[C@H](O)[C@@H](C)/C=C/C=C/C=C/C=C/C=C/C=C/C=C/[C@H](O[C@@H]2O[C@H](C)[C@@H](O)[C@H](N)[C@@H]2O)C[C@@H]2O[C@](O)(C[C@@H](O)C[C@@H](O)[C@H](O)CC[C@@H](O)C[C@@H](O)CC(=O)O[C@H]1C)C[C@H](O)[C@H]2C(=O)O [Amphoteracin B]?
Answer: BRCA1 fold induction [2]: 1.1; Beta-glucuronidase fold induction [2]: 1.3; CD40 ligand fold induction [2]: 1.4; Catalase fold induction [2]: 1.1; Caveolin-1 fold induction [2]: 1.0; Caveolin-2 fold induction [2]: 1.0; Cytochrome P450 2B fold induction [2]: 1.1; Cytochrome P450 2C21 fold induction [2]: 1.2; Cytochrome P450 2D fold induction [2]: 1.6; GRP94 fold induction [2]: 1.9; Glucose transporter fold induction [2]: 1.2; Glucose-6-phosphatase fold induction [2]: 1.3; Glucose-regulated protein 94 #2 fold induction [2]: 1.1; Glutathione S-transferase alpha subunit fold induction [2]: 1.1; Interleukin-8 fold induction [2]: 1.2; Interleukin-10 fold induction [2]: 1.1; Keratinocyte growth factor fold induction [2]: 1.1; Mek5 fold induction [2]: 1.1; Metallothionein 1 fold induction [2]: 2.1; Multidrug resistant protein-1 fold induction [2]: 1.2; Phase-1 CCT-11 fold induction [2]: 1.3; Phase-1 CCT-61 fold induction [2]: 1.1; Phase-1 CCT-72 fold induction [2]: 1.1; Phase-1 CCT-74 fold induction [2]: 1.1; Phase-1 CCT-76 fold induction [2]: 1.0; Phase-1 CCT-78 fold induction [2]: 1.0; Phase-1 CCT-80 fold induction [2]: 1.9; Phase-1 CCT-81 fold induction [2]: 1.0; Phase-1 CCT-82 fold induction [2]: 1.1; Phase-1 CCT-83 fold induction [2]: 1.1; Phase-1 CCT-87 fold induction [2]: 1.1; Phase-1 CCT-89 fold induction [2]: 1.1; Phase-1 CCT-91 fold induction [2]: 1.2; Phase-1 CCT-93 fold induction [2]: 1.0; Phase-1 CCT-97 fold induction [2]: 1.0; Phenol sulfotransferase fold induction [2]: 1.0; Prostaglandin D synthase fold induction [2]: 1.3; Rab2 fold induction [2]: 1.8; Rab5 fold induction [2]: 1.1; Rab7 fold induction [2]: 2.2; SHB (Src homology 2 protein) fold induction [2]: 1.1; TFCOUP-related (probable steroid hormone receptor) fold induction [2]: 1.1; Tissue inhibitor of metalloproteinases-1 fold induction [2]: 2.5; Tumor necrosis factor-alpha fold induction [2]: 2.0; UV excision repair protein RAD 23 (XP-C) fold induction [2]: 1.0; Ubiquitin fold induction [2]: 1.0; Vascular cell adhesion molecule 1 (VCAM-1) fold induction [2]: 3.5; ZAP36/annexin IV fold induction [2]: 1.4; c-erb B-2 fold induction [2]: 1.3; p38 MAPK fold induction [2]: 1.2; p53 fold induction [2]: 1.4

Question: CN(Cc1cnc2nc(N)nc(N)c2n1)c1ccc(C(=O)N[C@@H](CCC(=O)O)C(=O)O)cc1 [Methotrexate] was tested. Which fold induction at 2 days [3] did it give?
Answer: 1.1

Question: What about the fold induction at 3 days [4] of the same compound?
Answer: 1.1

Question: C[C@@H]1[C@H](O)[C@@H](C)/C=C/C=C/C=C/C=C/C=C/C=C/C=C/[C@H](O[C@@H]2O[C@H](C)[C@@H](O)[C@H](N)[C@@H]2O)C[C@@H]2O[C@](O)(C[C@@H](O)C[C@@H](O)[C@H](O)CC[C@@H](O)C[C@@H](O)CC(=O)O[C@H]1C)C[C@H](O)[C@H]2C(=O)O [Amphoteracin-B] was tested. Which BR-cadherin fold induction [2] did it give?
Answer: 1.0

Question: And the Beta-glucuronidase fold induction [2]?
Answer: 1.1

Question: And the “CD40 ligand fold induction” value [2]?
Answer: 2.2

Question: And the Catalase fold induction [2]?
Answer: 1.6

Question: What about the Caveolin-1 fold induction [2] of the same compound?
Answer: 1.2

Question: What about the Caveolin-2 fold induction [2] of the same compound?
Answer: 2.1

Question: And the “Cytochrome P450 2B fold induction” value [2]?
Answer: 1.1

Question: And the “Cytochrome P450 2C41 fold induction” value [2]?
Answer: 1.2

Question: What about the “Cytochrome P450 2D fold induction” value [2] of the same compound?
Answer: 1.6

Question: And the “Cytochrome P450 3A fold induction” value [2]?
Answer: 1.2

Question: What about the GRP94 fold induction [2] of the same compound?
Answer: 1.2

Question: And the “Glucose transporter fold induction” value [2]?
Answer: 1.3

Question: What about the “Glucose-regulated protein 94 #1 fold induction” value [2] of the same compound?
Answer: 1.2

Question: What about the “Glucose-regulated protein 94 #2 fold induction” value [2] of the same compound?
Answer: 1.1

Question: And the “Glutathione S-transferase alpha subunit fold induction” value [2]?
Answer: 1.8

Question: What about the Interleukin-8 fold induction [2] of the same compound?
Answer: 1.2

Question: What about the Interleukin-10 fold induction [2] of the same compound?
Answer: 5.9

Question: And the “Keratinocyte growth factor fold induction” value [2]?
Answer: 1.6

Question: And the Mek5 fold induction [2]?
Answer: 1.2

Question: And the “Metallothionein 1 fold induction” value [2]?
Answer: 3.1

Question: And the “Paraoxonase2 (PON2) fold induction” value [2]?
Answer: 2.1

Question: And the “Phase-1 CCT-11 fold induction” value [2]?
Answer: 1.1

Question: And the “Phase-1 CCT-59 fold induction” value [2]?
Answer: 1.1

Question: What about the “Phase-1 CCT-60 fold induction” value [2] of the same compound?
Answer: 1.3

Question: What about the “Phase-1 CCT-63 fold induction” value [2] of the same compound?
Answer: 1.1

Question: What about the “Phase-1 CCT-65 fold induction” value [2] of the same compound?
Answer: 1.1

Question: And the “Phase-1 CCT-66 fold induction” value [2]?
Answer: 1.1

Question: And the “Phase-1 CCT-68 fold induction” value [2]?
Answer: 1.1

Question: And the “Phase-1 CCT-72 fold induction” value [2]?
Answer: 1.1

Question: What about the “Phase-1 CCT-73 fold induction” value [2] of the same compound?
Answer: 1.1

Question: What about the “Phase-1 CCT-74 fold induction” value [2] of the same compound?
Answer: 1.1

Question: And the “Phase-1 CCT-78 fold induction” value [2]?
Answer: 1.1

Question: And the “Phase-1 CCT-84 fold induction” value [2]?
Answer: 1.5

Question: What about the “Phase-1 CCT-87 fold induction” value [2] of the same compound?
Answer: 1.0

Question: What about the “Phase-1 CCT-91 fold induction” value [2] of the same compound?
Answer: 1.5

Question: What about the “Phase-1 CCT-92 fold induction” value [2] of the same compound?
Answer: 1.4

Question: And the “Phase-1 CCT-94 fold induction” value [2]?
Answer: 1.1

Question: And the “Phenol sulfotransferase fold induction” value [2]?
Answer: 5.3

Question: What about the “Prostaglandin D synthase fold induction” value [2] of the same compound?
Answer: 1.4

Question: And the Rab2 fold induction [2]?
Answer: 1.1

Question: What about the Rab5 fold induction [2] of the same compound?
Answer: 1.1

Question: What about the Rab7 fold induction [2] of the same compound?
Answer: 1.1

Question: And the “SHB (Src homology 2 protein) fold induction” value [2]?
Answer: 1.2

Question: And the “Tumor necrosis factor-alpha fold induction” value [2]?
Answer: 3.5

Question: What about the “UV excision repair protein RAD 23 (XP-C) fold induction” value [2] of the same compound?
Answer: 1.1

Question: And the Ubiquitin fold induction [2]?
Answer: 1.3

Question: And the “ZAP36/annexin IV fold induction” value [2]?
Answer: 1.1

Question: What about the “c-erb B-2 fold induction” value [2] of the same compound?
Answer: 1.2

Question: And the p53 fold induction [2]?
Answer: 1.2

Question: Which results are given for CC(=O)Oc1ccccc1C(=O)O [aspirin]?
Answer: Expression Pattern ([5]; Band # CTP1D, No significant match): upregulated with Etoposide, caffeine; Expression Pattern ([5]; Band # CTP1G, No significant match): upregulated with Etoposide, caffeine; Expression Pattern [5, 6]: doublet-larger band is upregulated; Expression Pattern ([5]; Band # CTP25D, No significant match): repressed with caffeine and aspirin; Expression Pattern ([5]; Band # CTP26A, Canis familiaris chymase U89607): repressed with caffeine and aspirin; Expression Pattern ([5]; Band # CTP26B, H. sapiens cycA gene for X68303): repressed with caffeine and aspirin; Expression Pattern [5, 7]: repressed with etoposide and aspirin; Expression Pattern ([5]; Band # CTP32D, cDNA FLJ14795 fls, clone AK027701): repressed with caffeine and aspirin; Expression Pattern ([5]; Band # CTP144B, No significant match): repressed with caffeine and aspirin; Expression Pattern ([5]; Band # CTP145B, No significant match): repressed with aspirin; Expression Pattern ([5]; Band # CTP148B, Homo sapiens serine-thre AF108830): induced with aspirin; Expression Pattern ([5]; Band # CTP161B, Canis familiaris TCTA ger AJ012166): induced with aspirin; Expression Pattern ([5]; Band # CTP164A, No significant match): induced with aspirin; Expression Pattern ([5]; Band # CTP215B, No significant match): induced with aspirin; Expression Pattern ([5]; Band # CTP222D, No significant match): induced with aspirin

Question: How did the “Expression Pattern” value [5, 6] turn out when COc1cc([C@@H]2c3cc4c(cc3[C@@H](O[C@@H]3O[C@@H]5CO[C@@H](C)O[C@H]5[C@H](O)[C@H]3O)[C@H]3COC(=O)[C@H]23)OCO4)cc(OC)c1O [etoposide] was run?
Answer: doublet-larger band is upregulated

Question: And the “Expression Pattern” value [5, 7]?
Answer: repressed with etoposide and aspirin

Question: And the “Expression Pattern” value ([5]; Band # CTP37A, Homo sapiens nuclear fax AF167569)?
Answer: repressed with etoposide

Question: What about the “Expression Pattern” value ([5]; Band # CTP143B, No significant match) of the same compound?
Answer: induced with etoposide and caffeine

Question: What about the “Expression Pattern” value ([5]; Band # CTP150A, No significant match) of the same compound?
Answer: repressed with etoposide

Question: What about the “Expression Pattern” value ([5]; Band # CTP150C, Canis familiaris mitochon CFU96639) of the same compound?
Answer: repressed with etoposide

Question: And the “Expression Pattern” value ([5]; Band # CTP156J, Human DNA sequence fn AL136120)?
Answer: induced with etoposide and caffeine

Question: And the “Expression Pattern” value ([5]; Band # CTP216A, Canis familiaris heat-shoc U19368)?
Answer: repressed with etoposide
